The target in one experiment is T1, Caspase-7 (Homo sapiens, UniProt P55210).
T1 sequence (P55210 whole entry): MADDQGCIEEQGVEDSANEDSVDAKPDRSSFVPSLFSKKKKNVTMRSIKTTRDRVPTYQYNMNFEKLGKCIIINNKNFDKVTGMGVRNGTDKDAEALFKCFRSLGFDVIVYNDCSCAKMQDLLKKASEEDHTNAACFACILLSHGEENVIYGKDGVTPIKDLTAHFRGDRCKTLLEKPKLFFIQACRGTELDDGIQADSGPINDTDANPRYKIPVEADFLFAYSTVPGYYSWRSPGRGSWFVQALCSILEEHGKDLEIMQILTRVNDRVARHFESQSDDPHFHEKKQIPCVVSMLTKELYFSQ
Description: Inhibitory concentration against caspase-7.

In the next experiment the target is T2, Caspase-6 (Homo sapiens, UniProt P55212).
T2 sequence (P55212 whole entry): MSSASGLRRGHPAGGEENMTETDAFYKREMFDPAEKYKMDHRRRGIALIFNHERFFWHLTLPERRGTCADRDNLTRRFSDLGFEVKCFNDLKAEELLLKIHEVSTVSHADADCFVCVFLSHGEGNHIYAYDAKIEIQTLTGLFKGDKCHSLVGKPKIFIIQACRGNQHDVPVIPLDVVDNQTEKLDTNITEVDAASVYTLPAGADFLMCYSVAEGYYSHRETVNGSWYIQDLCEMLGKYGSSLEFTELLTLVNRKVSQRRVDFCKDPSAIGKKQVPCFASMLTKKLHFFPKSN
In words: Inhibitory concentration required against caspase-6.

In the next experiment the target is Caspase-8 (Homo sapiens, UniProt Q14790). Description: Inhibitory concentration against caspase-8.
Sequence of Caspase-8 (Q14790 217-374 limits assumed): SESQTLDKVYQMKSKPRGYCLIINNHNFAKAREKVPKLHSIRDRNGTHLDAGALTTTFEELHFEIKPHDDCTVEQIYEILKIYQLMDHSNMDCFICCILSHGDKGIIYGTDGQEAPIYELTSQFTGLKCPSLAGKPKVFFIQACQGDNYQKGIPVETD
Sequence of Caspase-8 (Q14790 385-479 limits assumed): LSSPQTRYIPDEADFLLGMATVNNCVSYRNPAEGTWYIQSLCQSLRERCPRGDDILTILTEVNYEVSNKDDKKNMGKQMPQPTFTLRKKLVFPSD
A further experiment has as its target T3, Caspase-3 (Homo sapiens, UniProt P42574).
T3 sequence (P42574 whole entry): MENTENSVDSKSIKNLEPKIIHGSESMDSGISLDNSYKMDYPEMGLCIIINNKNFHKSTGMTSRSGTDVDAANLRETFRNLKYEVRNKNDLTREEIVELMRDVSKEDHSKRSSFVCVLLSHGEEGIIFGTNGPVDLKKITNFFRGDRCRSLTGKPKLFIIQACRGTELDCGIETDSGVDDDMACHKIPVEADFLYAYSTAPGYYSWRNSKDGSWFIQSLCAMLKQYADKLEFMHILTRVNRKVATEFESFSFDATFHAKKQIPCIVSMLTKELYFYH
Description: Inhibitory concentration against caspase-3.

The target of the next experiment is Caspase-1 (Mus musculus) (UniProt P29452).
Sequence of Caspase-1 (Mus musculus) (P29452 whole entry, looked up): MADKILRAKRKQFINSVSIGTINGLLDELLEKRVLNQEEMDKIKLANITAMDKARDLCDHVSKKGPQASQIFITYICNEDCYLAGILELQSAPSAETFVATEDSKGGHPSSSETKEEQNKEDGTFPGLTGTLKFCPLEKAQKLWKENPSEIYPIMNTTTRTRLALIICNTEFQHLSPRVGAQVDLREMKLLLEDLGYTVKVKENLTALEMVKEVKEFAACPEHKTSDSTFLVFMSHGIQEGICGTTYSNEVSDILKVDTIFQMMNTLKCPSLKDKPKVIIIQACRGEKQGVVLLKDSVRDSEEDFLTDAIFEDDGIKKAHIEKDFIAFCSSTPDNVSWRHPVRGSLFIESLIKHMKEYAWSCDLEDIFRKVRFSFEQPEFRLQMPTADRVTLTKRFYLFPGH

Here are results for 32 compounds from ChEMBL document CHEMBL1134914, “Acyl dipeptides as reversible caspase inhibitors. Part 1: initial lead optimization” (Bioorg Med Chem Lett, 2002).

`CC(C)C[C@H](NC(=O)CSc1cccc2ccccc12)C(=O)N[C@H]1CC(=O)OC1O` (stereo partly drawn): the concentration for half-maximal inhibition (IC50) against Caspase-7 came out at 1.74 µM; against Caspase-6, 1.43 µM; against Caspase-8 it was 7.42 µM; on Caspase-3 it was 0.195 µM; at Caspase-1 (Mus musculus), 2.75 µM.
In the case of `Cc1ccc2ccccc2c1OCC(=O)N[C@@H](CC(C)C)C(=O)N[C@H]1CC(=O)OC1O` (stereo partly drawn), the 50% inhibitory concentration (IC50) on Caspase-7 came out at 4.16 µM; at Caspase-6, 32.4 µM; against Caspase-8, 4.14 µM; against Caspase-3 it was 0.375 µM; against Caspase-1 (Mus musculus), 0.843 µM.
`CC(C)C[C@H](NC(=O)C(C)Oc1cccc2cc(Br)ccc12)C(=O)N[C@H]1CC(=O)OC1O` (stereo partly drawn): the IC50 on Caspase-7 amounted to 32.4 µM; against Caspase-6 it was 13.8 µM; on Caspase-8, 29.1 µM; at Caspase-3, 4.81 µM.
For `CC(C)C[C@H](NC(=O)COc1cccc2ccccc12)C(=O)N[C@H]1CC(=O)OC1O` (stereo partly drawn), the 50% inhibitory concentration (IC50) amounted to 1.81 µM at Caspase-7, 0.94 µM against Caspase-6, 0.77 µM against Caspase-8 and 0.135 µM against Caspase-3.
`CC(C)C[C@H](NC(=O)COc1ccccc1C1CCCC1)C(=O)N[C@H]1CC(=O)OC1O` (stereo partly drawn): the 50% inhibitory concentration (IC50) was determined as 1.49 µM against Caspase-7; 3.37 µM against Caspase-6; 1.86 µM against Caspase-8; 0.197 µM on Caspase-3; 0.538 µM against Caspase-1 (Mus musculus).
On to `CC(C)C[C@H](NC(=O)CCOc1cccc2ccccc12)C(=O)N[C@H]1CC(=O)OC1O` (stereo partly drawn), for which the IC50 is 1.37 µM against Caspase-7, 0.305 µM against Caspase-6, 9.81 µM at Caspase-8 and 0.059 µM on Caspase-3.
In the case of `CC(C)C[C@H](NC(=O)COc1ccccc1)C(=O)N[C@H]1CC(=O)OC1O` (stereo partly drawn), the half-maximal inhibitory concentration (IC50) at Caspase-7 was over 10 µM; at Caspase-6 it was over 50 µM; at Caspase-8, over 10 µM; against Caspase-3, 3.4 µM; at Caspase-1 (Mus musculus), over 10 µM.
On to `CC(C)C[C@H](NC(=O)COc1c(Cl)cc(Cl)c2ccccc12)C(=O)N[C@H]1CC(=O)OC1O` (stereo partly drawn), for which the half-inhibitory concentration (IC50) turned out to be 3.61 µM on Caspase-7; 21.4 µM against Caspase-6; 3.04 µM on Caspase-8; 0.357 µM against Caspase-3; 0.141 µM at Caspase-1 (Mus musculus).
With `CC(C)C[C@H](NC(=O)CSc1ccc2ccccc2c1)C(=O)N[C@H]1CC(=O)OC1O` (stereo partly drawn), the IC50 against Caspase-7 worked out at 2.52 µM; against Caspase-6, 3.16 µM; against Caspase-8 it was 11 µM; at Caspase-3, 0.269 µM; on Caspase-1 (Mus musculus) it was 0.792 µM.
As to `CC(C)C[C@@H](NC(=O)OCc1ccccc1)C(=O)C[C@H]1CC(=O)OC1O` (stereo partly drawn), the 50% inhibitory concentration (IC50) was found to be 21.9 µM on Caspase-7; 14 µM against Caspase-6; 50 µM at Caspase-8; 3.47 µM against Caspase-3; 18.8 µM against Caspase-1 (Mus musculus).
On to `CC(C)C[C@H](NC(=O)COc1nccc2ccccc12)C(=O)N[C@H]1CC(=O)OC1O` (stereo partly drawn), for which the concentration for half-maximal inhibition (IC50) on Caspase-7 is 34.7 µM; against Caspase-6, over 50 µM; against Caspase-8 it was over 50 µM; on Caspase-3, 1.57 µM; against Caspase-1 (Mus musculus) it was 44.2 µM.
In the case of `CC(C)C[C@H](NC(=O)COc1ccc(Cl)c2ccccc12)C(=O)N[C@H]1CC(=O)OC1O` (stereo partly drawn), the IC50 is 3.38 µM at Caspase-7; 12 µM at Caspase-6; 1.69 µM against Caspase-8; 0.231 µM against Caspase-3; 0.429 µM at Caspase-1 (Mus musculus).
The matching figures for `CC(C)C[C@H](NC(=O)COc1ccc(C2CCCC2)cc1)C(=O)N[C@H]1CC(=O)OC1O` (stereo partly drawn): 5.23 µM, 51.2 µM, 5.9 µM, 0.319 µM and 2.2 µM.
The matching figures for `CC(C)C[C@H](NC(=O)COc1ccnc2ccccc12)C(=O)N[C@H]1CC(=O)OC1O` (stereo partly drawn): 4.57 µM, over 50 µM, over 50 µM, 0.232 µM and 35.3 µM.
As to `COc1ccc(OCC(=O)N[C@@H](CC(C)C)C(=O)N[C@H]2CC(=O)OC2O)c2ccccc12` (stereo partly drawn), the half-maximal inhibitory concentration (IC50) against Caspase-7 was found to be 4.08 µM; against Caspase-6, 22.6 µM; at Caspase-8 it was 1.45 µM; at Caspase-3, 0.263 µM; against Caspase-1 (Mus musculus), 0.831 µM.
As to `CC(C)C[C@H](NC(=O)COc1ccc2c(c1)CCCC2)C(=O)N[C@H]1CC(=O)OC1O` (stereo partly drawn), the 50% inhibitory concentration (IC50) on Caspase-7 was determined as 2.31 µM; against Caspase-6, 28.6 µM; against Caspase-8, 4.95 µM; against Caspase-3 it was 0.162 µM; against Caspase-1 (Mus musculus) it was 2.57 µM.
On to `CC(C)C[C@H](NC(=O)COc1cccc(-c2ccccc2)c1)C(=O)N[C@H]1CC(=O)OC1O` (stereo partly drawn), for which the IC50 was 3.75 µM at Caspase-7; 14.5 µM against Caspase-6; 3.86 µM against Caspase-8; 0.311 µM against Caspase-3; 1.1 µM against Caspase-1 (Mus musculus).
Regarding `CC(C)C[C@H](NC(=O)C(C)Oc1cccc2ccccc12)C(=O)N[C@H]1CC(=O)OC1O` (stereo partly drawn), the concentration for half-maximal inhibition (IC50) amounted to 1.32 µM at Caspase-7, 1.28 µM at Caspase-6, 2.43 µM against Caspase-8 and 0.376 µM against Caspase-3.
Take `CC(C)C[C@H](NC(=O)/C=C/c1ccccc1)C(=O)N[C@H]1CC(=O)OC1O` (stereo partly drawn): the IC50 is 9.72 µM on Caspase-7; 5.05 µM against Caspase-6; 13.4 µM against Caspase-8; 1.39 µM at Caspase-3; 0.65 µM at Caspase-1 (Mus musculus).
For the compound `CC(C)C[C@H](NC(=O)COc1ccc(Oc2ccccc2)cc1)C(=O)N[C@H]1CC(=O)OC1O` (stereo partly drawn), the IC50 against Caspase-7 was 6.82 µM; against Caspase-6, 21.2 µM; against Caspase-8, 9.28 µM; against Caspase-3 it was 0.545 µM; against Caspase-1 (Mus musculus), 2.21 µM.
`CC(C)C[C@H](NC(=O)COc1cccc2cccnc12)C(=O)N[C@H]1CC(=O)OC1O` (stereo partly drawn): the IC50 against Caspase-7 is 1.51 µM; on Caspase-6, 12.5 µM; at Caspase-8 it was 2.24 µM; against Caspase-3 it was 0.147 µM; on Caspase-1 (Mus musculus) it was 13.7 µM.
On to `CC(C)C[C@H](NC(=O)COc1ccc(C23CC4CC(CC(C4)C2)C3)cc1)C(=O)N[C@H]1CC(=O)OC1O` (stereo partly drawn), for which the half-maximal inhibitory concentration (IC50) came to 8.24 µM at Caspase-7; 32.5 µM against Caspase-6; 4.35 µM against Caspase-8; 0.528 µM against Caspase-3; 1.83 µM at Caspase-1 (Mus musculus).
Consider `CC(C)C[C@H](NC(=O)c1ccc2ccccc2c1)C(=O)N[C@H]1CC(=O)OC1O` (stereo partly drawn), for which the IC50 was over 10 µM against Caspase-7; over 10 µM on Caspase-6; over 10 µM at Caspase-8; 6.74 µM against Caspase-3; 1.74 µM against Caspase-1 (Mus musculus).
As to `CC(C)[C@@H](NC(=O)OCc1ccccc1)C(=O)C[C@H]1CC(=O)OC1O` (stereo partly drawn), the IC50 on Caspase-7 is 6.81 µM; against Caspase-6, 10 µM; at Caspase-8 it was 12 µM; on Caspase-3 it was 1.75 µM; at Caspase-1 (Mus musculus) it was 5.85 µM.
Consider `CC(C)C[C@H](NC(=O)COc1cccc2cnccc12)C(=O)N[C@H]1CC(=O)OC1O` (stereo partly drawn), for which the IC50 at Caspase-7 came out at 3.48 µM; against Caspase-6 it was 42.7 µM; against Caspase-8 it was 3.64 µM; on Caspase-3 it was 0.407 µM; on Caspase-1 (Mus musculus) it was 5.14 µM.
As to `Cc1ccc(OCC(=O)N[C@@H](CC(C)C)C(=O)N[C@H]2CC(=O)OC2O)c(C23CC4CC(CC(C4)C2)C3)c1` (stereo partly drawn), the IC50 against Caspase-7 is 2.79 µM; on Caspase-6 it was 5.86 µM; against Caspase-8 it was 3.87 µM; against Caspase-3 it was 0.474 µM; against Caspase-1 (Mus musculus), 1.43 µM.
On the same counts, the results for `CC(C)C[C@H](NC(=O)CCSc1cccc2ccccc12)C(=O)N[C@H]1CC(=O)OC1O` (stereo partly drawn) are 3.6 µM, 2.72 µM, 16.3 µM, 0.412 µM and 0.563 µM.
With `CC(C)C[C@H](NC(=O)Cc1ccc2ccccc2c1)C(=O)N[C@H]1CC(=O)OC1O` (stereo partly drawn), the 50% inhibitory concentration (IC50) at Caspase-7 is over 10 µM; against Caspase-6, 11.1 µM; on Caspase-8, 12.7 µM; against Caspase-3, 0.849 µM; against Caspase-1 (Mus musculus), 3.14 µM.
As to `CC(C)C[C@H](NC(=O)COc1ccc(-c2ccccc2)cc1)C(=O)N[C@H]1CC(=O)OC1O` (stereo partly drawn), the IC50 against Caspase-7 turned out to be 12 µM; at Caspase-6 it was 20.5 µM; at Caspase-8, 7.53 µM; against Caspase-3, 0.763 µM; on Caspase-1 (Mus musculus) it was 1.9 µM.
As for `CC(C)C[C@H](NC(=O)Cc1cccc2ccccc12)C(=O)N[C@H]1CC(=O)OC1O` (stereo partly drawn), the IC50 on Caspase-7 stood at 7.27 µM; on Caspase-3, 0.853 µM; against Caspase-1 (Mus musculus), 3.24 µM.
On to `CC(C)C[C@H](NC(=O)COc1ccc(OCc2ccccc2)cc1)C(=O)N[C@H]1CC(=O)OC1O` (stereo partly drawn), for which the IC50 amounted to 7.25 µM at Caspase-7; 33.4 µM against Caspase-6; 8.6 µM on Caspase-8; 0.57 µM at Caspase-3; 2.51 µM against Caspase-1 (Mus musculus).
Consider `CC(C)C[C@H](NC(=O)c1cccc2ccccc12)C(=O)N[C@H]1CC(=O)OC1O` (stereo partly drawn), for which the IC50 against Caspase-7, against Caspase-6, against Caspase-8 and on Caspase-3 was over 10 µM in each case.
